Source: ChEMBL document CHEMBL1201862, “PubChem BioAssay data set” (2004)
Active and inactive are the calls of the source.

How the values were obtained:
Streptokinase A = target: T1, Streptokinase A (Streptococcus pyogenes serotype M1, UniProt P10520); assay: viability-normalized secreted streptokinase activity reduction – plasminogen activation absorbance, OD405, dose response (AID 1914); format: functional, Streptococcus pyogenes M1 GAS;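 note: secreted streptokinase activity via plasminogen activation per viability signal from cell pellet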
T1 sequence (P10520 whole entry): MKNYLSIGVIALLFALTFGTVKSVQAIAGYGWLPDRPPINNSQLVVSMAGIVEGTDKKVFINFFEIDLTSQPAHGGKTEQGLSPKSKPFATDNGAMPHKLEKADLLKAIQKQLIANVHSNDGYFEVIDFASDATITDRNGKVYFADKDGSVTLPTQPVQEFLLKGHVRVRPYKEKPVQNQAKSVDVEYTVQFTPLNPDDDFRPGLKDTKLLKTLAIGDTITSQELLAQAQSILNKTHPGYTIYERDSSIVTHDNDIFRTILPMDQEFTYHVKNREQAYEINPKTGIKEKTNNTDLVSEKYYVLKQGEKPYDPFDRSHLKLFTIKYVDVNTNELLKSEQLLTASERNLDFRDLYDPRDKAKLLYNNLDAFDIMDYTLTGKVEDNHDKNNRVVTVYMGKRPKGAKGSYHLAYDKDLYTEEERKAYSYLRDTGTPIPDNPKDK

Nonstructural protein 1 = Nonstructural protein 1 (Influenza A virus, UniProt Q194T2); format: functional, Influenza A virus (A/California/07/2009(H1N1))
Sequence of Nonstructural protein 1 (Q194T2 whole entry): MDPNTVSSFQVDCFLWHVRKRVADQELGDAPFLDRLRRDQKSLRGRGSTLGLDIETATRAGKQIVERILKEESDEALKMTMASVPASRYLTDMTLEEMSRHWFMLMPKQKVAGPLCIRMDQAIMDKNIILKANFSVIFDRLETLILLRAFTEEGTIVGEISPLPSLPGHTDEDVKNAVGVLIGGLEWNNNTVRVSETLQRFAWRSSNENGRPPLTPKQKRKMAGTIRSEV

[1] = system: Streptococcus sp. 'group A'; assay: Streptococcus pyogenes SK(-)GAS viability under kanamycin – luminescence, BacTiterGlo, confirmation, counter-screen for streptokinase expression inhibitor project, dose response (AID 1900); format: functional, organism-based
Streptococcus = assay: GAS UMAA2166 growth inhibition – luminescence, BacTiterGlo, counter-screen for streptokinase expression inhibitor project, dose response (AID 1915); format: functional, organism-based;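 note: potency for reduction of bacterial viability or growth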
Aminopeptidase N = target: T2, Aminopeptidase N (Plasmodium falciparum FcB1/Columbia, UniProt O96935); assay: malaria alanyl aminopeptidase activity blockers – biochemical, fluorogenic H-Leu-NHMec substrate, 1536-well (AID 1445); design: species or system Plasmodium falciparum 3D7, 3D7
T2 sequence (O96935 whole entry): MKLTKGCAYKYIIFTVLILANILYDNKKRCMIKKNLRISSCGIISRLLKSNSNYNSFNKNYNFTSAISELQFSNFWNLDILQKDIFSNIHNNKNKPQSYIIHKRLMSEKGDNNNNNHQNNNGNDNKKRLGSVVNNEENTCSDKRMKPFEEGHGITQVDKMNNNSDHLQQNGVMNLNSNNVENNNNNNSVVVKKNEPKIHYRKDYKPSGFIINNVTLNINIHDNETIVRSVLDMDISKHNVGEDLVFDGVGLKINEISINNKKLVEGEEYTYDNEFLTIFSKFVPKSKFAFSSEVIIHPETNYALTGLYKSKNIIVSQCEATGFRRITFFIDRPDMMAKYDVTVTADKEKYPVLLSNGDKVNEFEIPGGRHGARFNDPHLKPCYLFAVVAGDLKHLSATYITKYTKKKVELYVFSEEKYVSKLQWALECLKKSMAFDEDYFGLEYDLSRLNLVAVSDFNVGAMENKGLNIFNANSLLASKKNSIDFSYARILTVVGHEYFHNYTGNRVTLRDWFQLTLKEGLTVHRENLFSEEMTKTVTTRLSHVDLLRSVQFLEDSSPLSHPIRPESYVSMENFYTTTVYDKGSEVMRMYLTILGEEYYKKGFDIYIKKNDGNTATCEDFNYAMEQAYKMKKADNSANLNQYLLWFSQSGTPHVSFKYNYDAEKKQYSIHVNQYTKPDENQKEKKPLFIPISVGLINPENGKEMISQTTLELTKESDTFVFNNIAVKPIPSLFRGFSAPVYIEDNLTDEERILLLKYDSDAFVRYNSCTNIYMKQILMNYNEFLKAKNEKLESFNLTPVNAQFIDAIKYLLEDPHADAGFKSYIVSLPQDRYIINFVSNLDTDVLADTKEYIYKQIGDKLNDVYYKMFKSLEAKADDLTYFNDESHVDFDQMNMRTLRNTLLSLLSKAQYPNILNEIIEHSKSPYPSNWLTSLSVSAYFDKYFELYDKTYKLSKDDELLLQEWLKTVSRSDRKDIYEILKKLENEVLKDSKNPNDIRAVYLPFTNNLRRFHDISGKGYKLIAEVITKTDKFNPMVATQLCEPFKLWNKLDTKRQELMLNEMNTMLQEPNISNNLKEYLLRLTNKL

[2] = target: Eukaryotic translation initiation factor 4E (Mus musculus, UniProt P63073); assay: blockers of eIF4G binding by eIF4E – biochemical, TR-FRET, dose response (AID 855); format: functional;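 note: potency for disrupting eIF4E binding to eIF4GI seen as loss of FRET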
Sequence of Eukaryotic translation initiation factor 4E (P63073 whole entry): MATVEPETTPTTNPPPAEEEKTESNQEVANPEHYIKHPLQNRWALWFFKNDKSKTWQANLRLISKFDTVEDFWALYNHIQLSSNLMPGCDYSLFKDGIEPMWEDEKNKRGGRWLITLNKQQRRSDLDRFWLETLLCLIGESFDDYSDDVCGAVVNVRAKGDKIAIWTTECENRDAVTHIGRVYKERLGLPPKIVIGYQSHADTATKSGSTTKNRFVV

Coagulation factor XII = target: T3, Coagulation factor XII (Homo sapiens, UniProt P00748); format: functional;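 note: activated factor XIIa alpha cleaving a fluorogenic AMC peptide substrate; inhibitor potency from loss of enzyme activity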
T3 sequence (P00748 whole entry): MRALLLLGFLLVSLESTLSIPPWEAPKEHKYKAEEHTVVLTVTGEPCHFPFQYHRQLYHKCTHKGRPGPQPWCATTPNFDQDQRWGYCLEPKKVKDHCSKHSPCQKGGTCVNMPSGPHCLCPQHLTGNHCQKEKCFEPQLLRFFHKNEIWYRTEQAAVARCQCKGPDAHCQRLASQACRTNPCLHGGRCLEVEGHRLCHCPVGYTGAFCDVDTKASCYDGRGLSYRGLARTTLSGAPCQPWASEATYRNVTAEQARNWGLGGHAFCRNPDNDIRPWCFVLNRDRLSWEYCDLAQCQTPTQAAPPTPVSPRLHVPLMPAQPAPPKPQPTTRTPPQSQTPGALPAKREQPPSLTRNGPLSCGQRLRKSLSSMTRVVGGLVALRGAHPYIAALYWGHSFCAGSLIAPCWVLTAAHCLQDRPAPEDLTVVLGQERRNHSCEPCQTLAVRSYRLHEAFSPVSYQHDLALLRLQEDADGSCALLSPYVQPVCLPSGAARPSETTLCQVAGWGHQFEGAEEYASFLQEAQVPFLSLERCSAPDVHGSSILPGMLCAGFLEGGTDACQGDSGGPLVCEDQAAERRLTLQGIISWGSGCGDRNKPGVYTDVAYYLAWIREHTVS

[3] = Luminescence Cell-Based Dose Response HTS to Identify Inhibitors of 5'UTR Stem-Loop Driven Prion Protein mRNA Translation in H4 Neuroglioblastoma Cells. [Related pubchem assays: 1827 (Project Summary), 1813 (Primary HTS)]; format: functional
[4] = alpha-synuclein stem-loop luciferase translation blockers – H4 neuroglioma cells, luminescence, confirmation (AID 1988); format: functional, cell-based
[5] = luciferase reporter signal suppression in cells – H4 neuroglioma cells, luminescence, dose response (AID 1990); format: functional, cell-based
[6] = Luminescence Cell-Based Dose Response HTS to Identify Activators of Luciferase Translation or Activity in H4 […] Cells. [Related pubchem assays: 1829 (Project Summary), 1814 (Primary HTS)]; format: functional
H4 = assay: Luminescence Cell-Based Dose Response HTS to Identify Activators of 5'UTR Stem-Loop Driven Prion Protein mRNA Translation in H4 Neuroglioblastoma Cells. [Related pubchem assays: 1829 (Project Summary), 1814 (Primary HTS)]; format: functional; conditions: Homo sapiens
[7] = Luminescence Cell-Based Dose Confirmation HTS to Identify Activators of 5'UTR Stem-Loop Driven Alpha-Synuclein mRNA Translation in H4 Neuroglioblastoma Cells. [Related pubchem assays: 1829 (Project Summary), 1814 (Primary HTS)]; format: functional
Fatty acid synthase [8] = target: T4, Fatty acid synthase (Homo sapiens, UniProt P49327); assay: inhibition of human FAS-TE enzyme activity – biochemical, kinetic fluorescence intensity, dose response (AID 624326); format: functional;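 note: rate of fluorescence rise from hydrolysis of a fluorogenic O-methyl fluorescein ester substrate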
T4 sequence (P49327 whole entry): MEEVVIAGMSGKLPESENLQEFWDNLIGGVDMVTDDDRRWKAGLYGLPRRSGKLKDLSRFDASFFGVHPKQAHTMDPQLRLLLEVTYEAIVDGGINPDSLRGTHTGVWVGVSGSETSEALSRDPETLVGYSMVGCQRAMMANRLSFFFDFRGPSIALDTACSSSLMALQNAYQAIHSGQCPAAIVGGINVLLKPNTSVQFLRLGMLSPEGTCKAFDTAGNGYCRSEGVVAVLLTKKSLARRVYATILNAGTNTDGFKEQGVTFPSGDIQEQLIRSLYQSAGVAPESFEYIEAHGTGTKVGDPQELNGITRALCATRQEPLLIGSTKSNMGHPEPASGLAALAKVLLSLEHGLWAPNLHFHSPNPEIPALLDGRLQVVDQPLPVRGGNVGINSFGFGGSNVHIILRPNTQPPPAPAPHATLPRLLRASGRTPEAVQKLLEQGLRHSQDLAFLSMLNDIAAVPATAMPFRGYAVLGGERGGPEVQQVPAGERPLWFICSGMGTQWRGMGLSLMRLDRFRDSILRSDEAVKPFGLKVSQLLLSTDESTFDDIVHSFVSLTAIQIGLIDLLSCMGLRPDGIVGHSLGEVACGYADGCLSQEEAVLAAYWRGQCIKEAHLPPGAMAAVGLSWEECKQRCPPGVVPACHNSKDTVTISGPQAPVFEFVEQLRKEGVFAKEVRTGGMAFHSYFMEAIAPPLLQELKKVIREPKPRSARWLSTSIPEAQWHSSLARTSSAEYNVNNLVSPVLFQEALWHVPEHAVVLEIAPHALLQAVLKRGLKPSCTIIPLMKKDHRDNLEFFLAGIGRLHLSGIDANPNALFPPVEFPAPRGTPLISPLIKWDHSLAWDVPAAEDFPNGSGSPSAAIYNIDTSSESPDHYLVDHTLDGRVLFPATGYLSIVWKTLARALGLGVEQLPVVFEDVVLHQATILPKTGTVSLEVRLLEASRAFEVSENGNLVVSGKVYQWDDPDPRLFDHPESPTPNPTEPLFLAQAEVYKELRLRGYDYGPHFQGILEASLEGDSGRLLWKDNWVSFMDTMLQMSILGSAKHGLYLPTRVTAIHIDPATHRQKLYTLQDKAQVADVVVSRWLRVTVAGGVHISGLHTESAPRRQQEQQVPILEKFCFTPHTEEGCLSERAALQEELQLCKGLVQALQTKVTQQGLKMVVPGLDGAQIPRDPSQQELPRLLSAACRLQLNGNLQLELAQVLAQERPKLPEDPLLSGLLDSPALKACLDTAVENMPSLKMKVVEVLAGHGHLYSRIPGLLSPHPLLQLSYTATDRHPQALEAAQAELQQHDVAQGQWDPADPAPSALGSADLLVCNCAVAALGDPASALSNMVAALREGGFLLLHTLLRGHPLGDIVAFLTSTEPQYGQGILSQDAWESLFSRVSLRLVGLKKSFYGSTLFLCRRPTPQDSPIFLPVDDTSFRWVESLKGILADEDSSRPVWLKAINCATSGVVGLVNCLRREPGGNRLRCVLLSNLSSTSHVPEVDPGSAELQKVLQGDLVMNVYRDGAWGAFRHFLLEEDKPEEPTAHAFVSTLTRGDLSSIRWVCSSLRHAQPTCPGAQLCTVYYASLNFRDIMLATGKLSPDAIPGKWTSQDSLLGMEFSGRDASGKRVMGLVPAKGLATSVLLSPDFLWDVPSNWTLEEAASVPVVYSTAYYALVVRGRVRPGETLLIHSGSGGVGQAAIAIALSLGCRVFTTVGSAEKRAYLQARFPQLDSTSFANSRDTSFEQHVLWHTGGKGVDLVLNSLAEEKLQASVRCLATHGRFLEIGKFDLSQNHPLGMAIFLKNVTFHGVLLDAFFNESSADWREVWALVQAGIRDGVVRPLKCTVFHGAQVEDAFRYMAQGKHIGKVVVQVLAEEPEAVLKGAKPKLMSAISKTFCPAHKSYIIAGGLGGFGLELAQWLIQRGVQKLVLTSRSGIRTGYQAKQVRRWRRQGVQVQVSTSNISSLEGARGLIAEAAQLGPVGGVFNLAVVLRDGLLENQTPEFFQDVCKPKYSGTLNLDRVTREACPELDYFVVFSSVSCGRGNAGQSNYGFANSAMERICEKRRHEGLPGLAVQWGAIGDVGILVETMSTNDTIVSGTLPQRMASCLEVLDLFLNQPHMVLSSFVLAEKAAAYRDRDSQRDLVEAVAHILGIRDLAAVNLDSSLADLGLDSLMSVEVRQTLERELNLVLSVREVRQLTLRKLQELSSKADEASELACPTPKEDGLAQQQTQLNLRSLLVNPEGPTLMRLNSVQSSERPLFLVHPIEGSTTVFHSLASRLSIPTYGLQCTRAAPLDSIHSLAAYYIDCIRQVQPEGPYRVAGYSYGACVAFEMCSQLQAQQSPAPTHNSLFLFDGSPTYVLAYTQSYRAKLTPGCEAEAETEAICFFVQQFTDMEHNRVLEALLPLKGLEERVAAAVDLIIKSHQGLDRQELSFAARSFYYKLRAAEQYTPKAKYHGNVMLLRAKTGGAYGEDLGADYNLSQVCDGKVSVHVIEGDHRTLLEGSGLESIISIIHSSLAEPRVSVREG

Fatty acid synthase [9] = target: T4, Fatty acid synthase; assay: inhibition of human FAS-TE enzyme activity – biochemical, endpoint fluorescence intensity, uHTS hits, dose response (AID 624327); format: functional;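 note: fluorescence from hydrolysis of an O-methyl fluorescein acyl ester substrate by the enzyme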
[10] = target: Induced myeloid leukemia cell differentiation protein Mcl-1 (Homo sapiens, UniProt Q07820); format: functional
Sequence of Induced myeloid leukemia cell differentiation protein Mcl-1 (Q07820 whole entry): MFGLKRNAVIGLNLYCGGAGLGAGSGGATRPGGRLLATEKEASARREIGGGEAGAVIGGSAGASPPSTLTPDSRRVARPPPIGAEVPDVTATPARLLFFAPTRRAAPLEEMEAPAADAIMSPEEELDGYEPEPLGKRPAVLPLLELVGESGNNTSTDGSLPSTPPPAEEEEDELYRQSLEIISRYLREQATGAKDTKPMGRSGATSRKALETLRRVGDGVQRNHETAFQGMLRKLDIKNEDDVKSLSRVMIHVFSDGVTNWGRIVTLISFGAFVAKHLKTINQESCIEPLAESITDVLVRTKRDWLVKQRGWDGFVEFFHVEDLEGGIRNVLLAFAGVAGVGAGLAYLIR

[11] = viability of uninfected HEp-2 cells – cell-based, HTS, cytotoxicity control for RSV inhibitor project, dose response (AID 2410); format: functional; conditions: human respiratory syncytial virus
[12] = microbe, parasite or virus in culture; format: functional; conditions: Mycobacterium tuberculosis

In the case of CC1(C)Oc2ccc3ccc(=O)oc3c2C(/C=N/NC(N)=S)=C1O, the EC50 (Streptokinase A) is reported as > 150 µM (not active), the IC50 (Nonstructural protein 1) is reported as 26.6 µM (active) and the EC50 [1] is reported as 3.2 µM (active). For the same molecule, the EC50 (Streptococcus) was 22.8 µM (active).

For COc1ccc(C(C)=O)cc1CSc1nc2cc(C(=O)O)ccc2c(=O)n1Cc1ccccc1, the IC50 (Aminopeptidase N) was 83.5 µM (active).

In the case of Cc1ccc(S(=O)(=O)N2CCN(C(C)C(=O)Nc3ccccc3-c3ccccc3)CC2)cc1 (centres undefined), the IC50 [2] is reported as > 64 µM (inactive).

For C#CCCOC(=O)N1C2=NC(C(=O)OC)=C(C(=O)OC)[C@@H]3N(CC=C)c4ccccc4[C@]23C[C@H]1C(=O)OC, the IC50 (Aminopeptidase N) was 58.5 µM (active).

With CC1(C)OC(=C/C=N/c2ccc(Cl)cc2)OC1(C)C the IC50 (Coagulation factor XII) was > 50 µM (inactive), the EC50 [3] was > 120 µM (not active) and the EC50 [4] was > 120 µM (not active). The EC50 [5] was > 120 µM (not active).

For C[n+]1c(/C=C/c2ccc(O)cc2)ccc2ccccc21, the IC50 (Nonstructural protein 1) was > 100 µM (active), the EC50 [6] was 5.65 µM (active) and the EC50 (H4) was 7.6 µM (active). For the same molecule, the EC50 [7] was 12.5 µM (active).

In the case of COc1cc(/C=N/NC(=O)C(Cc2c[nH]c3ccccc23)NC(=O)OCc2ccccc2)cc([N+](=O)[O-])c1O (centres undefined), the IC50 (Fatty acid synthase [8]) is reported as 8.12 µM (active), the IC50 (Fatty acid synthase [9]) is reported as 5.95 µM (active) and the IC50 [10] is reported as 6.11 µM (active). For the same molecule, the IC50 (Aminopeptidase N) was 4.75 µM (active).

With CC(=O)C1=C(C)NC(SCc2ccc(C#N)cc2)=C(C#N)C1c1ccco1 (centres undefined) the IC50 [2] was > 64 µM (inactive).

For Cc1ccc(O)c(NC(=S)NC(=O)Cc2ccc(Cl)cc2)c1, the CC50 [11] was 29.4 µM (active) and the IC50 (cells) was 23.4 µM (active).

In the case of COc1ccc(CN(C(=O)c2snc(C(N)=O)c2N)C(C(=O)NC(C)(C)C)c2ccco2)cc1 (centres undefined), the IC50 (Coagulation factor XII) is reported as > 50 µM (inactive).

With COc1ccc(OCC(=O)N2CC3(C)CC2CC(C)(C)C3)cc1 (centres undefined) the IC50 [2] was > 64 µM (inactive).

In the case of Cc1cc(Br)c2[nH]c3c(c2c1)CCCC3=O, the IC50 (Coagulation factor XII) is reported as > 50 µM (inactive).

For CC(C1CC2CCC1C2)N1CC(=O)C(c2nc3ccccc3[nH]2)=C1N (centres undefined), the IC50 (Coagulation factor XII) was > 50 µM (inactive).

With Cc1ccc(S(=O)(=O)N(C)CCCC(=O)Nc2cc(C)ccc2C)cc1 the IC50 (Nonstructural protein 1) was 22.9 µM (active).

With O=C(COC(=O)c1ccccc1Br)Nc1ccc(F)cc1 the IC50 (Coagulation factor XII) was > 50 µM (inactive).

In the case of Cc1nn(-c2ccccc2)c2c1C(c1ccc([N+](=O)[O-])cc1)N1C(=N2)C(=O)Nc2ccccc21 (centres undefined), the CC50 [12] is reported as 39.3 µM (active), the CC50 [11] is reported as 34.8 µM (active) and the IC50 (cells) is reported as 31.5 µM (active).

In the case of Oc1c(C(c2cccs2)N2CCN(c3ccccc3)CC2)ccc2cccnc12 (centres undefined), the IC50 [2] is reported as > 64 µM (inactive).

With CCCOc1ccc(N2C(=O)CC(N(Cc3ccc(OC)cc3)C(S)=Nc3ccccc3)C2=O)cc1 (centres undefined) the CC50 [11] was > 50 µM (active) and the IC50 (cells) was 7.34 µM (active).
